# Assay results: US10597368B2, “Syringolin analogues and methods of making and using same” (BROWN UNIVERSITY, priority 2015, dated 2020)
# Biological target: T1, human 20S proteasome (hs20S), chymotrypsin-like β5-subunits (Homo sapiens, UniProt P20618+P28074)
# T1 construct: purchased R&D
# Test: In vitro 20S peptidase inhibition kinetics, chymotrypsin-like activity (Suc-LLVY-AMC)
# Type: biochemical
# Details: second-order rate constant, Suc-LLVY-AMC substrate, 37° C.
# Protocol: In vitro 20S peptidase inhibition assays were recorded in a 384-well plate at a SpectraMax M5 (Molecular devises) plate-reader. Therefore, 5 nM human 20S (R&D) was incubated in buffer R (50 mM HEPES-KOH, pH 7.5, 0.5 mM EDTA) with 100 μM of the fluorogenic peptide substrates Suc-LLVY-AMC or Boc-LRR-AMC. Reactions were started by adding various amounts of inhibitors (5 nM to 500 μM) to a final volume of 30 μL and peptide hydrolysis was continuously monitored for 90 min by changes in fluorescence (excitation 380 nm; emission 440 nm) at 37° C. The kobs values were determined by fitting the raw data to equation (1). The slopes of the plots of kobsversus I gave an apparent value of kobs/I, also referred to as kinact/Ki for an irreversible inhibitor, which was then corrected by equation (2) to compensate for the effect of substrate competition, where app is the apparent value at different inhibitor concentrations.
# Using purified human 20S proteasome (hs20S) and a fluorogenic substrate (Suc-LLVY-AMC), in vitro assays were performed to systematically assess proteasome inhibition by the syringolin analogues. The choice of substrate was based on the fact that it is preferentially acted upon by the chymotrypsin-like β5-subunits of the proteasome due to the aromatic tyrosine residue at the scissile bond (i.e., P1 position).
# From measurements of the rates of hydrolysis of the fluorogenic substrate by the proteasome in the presence of increasing concentrations of each inhibitor, second-order rate constants kin/Ki (M^−1 s^−1) were determined (Table 1), which reflect both the affinity of the non-covalent binding (Ki) and the rate of the chemical reaction with the enzyme (kin). All of the syringolin analogues were capable in inhibiting the chymotrypsin-like activity of hs20S. Without wishing to be limited by any theory, consistent with the design predictions, the most significant contributor to the apparent second-order rate constants of the compounds was their binding affinity (Ki) rather than the rates of inhibition.
# In vitro 20S peptidase inhibition assays were recorded in a 384-well plate at a SpectraMax M5 (Molecular Devices) plate-reader. Therefore, 5 nM human 20S (R&D) was incubated in buffer R (50 mM HEPEs-KOH, pH 7.5, 0.5 mM EDTA) with 100 μM of the fluorogenic peptide substrate Suc-LLVY-AMC. Reactions were started by adding various amounts of inhibitors 5 nM to 500 μM) to a final volume of 30 μL and peptide hydrolysis was continuously monitored for 90 minutes by changes in fluorescence (excitation 380 nm; emission 440 nm) at 37 degrees Celsius. The kobs values were determined by fitting the raw data to equation 1. The slopes of the plots of kobs versus I gave an apparent value of kob/I, also referred to as kinact/Ki for an irreversible inhibitor, which was then corrected by equation 2 to compensate for the effect of substrate competition, where app is the apparent value at different inhibitor concentrations.
row,Structure (SMILES),hs20S kin/Ki [M⁻¹ s⁻¹]
1,"COC(=O)[C@@H](NC(=O)N[C@@H](Cc1cccc(Cl)c1)C(=O)N[C@H]1CCCCNC(=O)/C=C/[C@H](Cc2cccc(F)c2)NC1=O)C(C)C [Compound 25, (S)-methyl 2-(3-((S)-3-(3-chlorophenyl)-1-((5S,8S,E)-5-(3-fluorobenzyl)-2,7-dioxo-1,6-diazacyclododec-3-en-8-ylamino)-1-oxopropan-2-yl)ureido)-3-methylbutanoate]",8532
2,"COC(=O)[C@@H](NC(=O)N[C@@H](Cc1ccc(Cl)cc1)C(=O)N[C@H]1CCCCNC(=O)/C=C/[C@H](Cc2cccc(F)c2)NC1=O)C(C)C [Compound 26, (S)-methyl 2-(3-((S)-3-(4-chlorophenyl)-1-((5S,8S,E)-5-(3-fluorobenzyl)-2,7-dioxo-1,6-diazacyclododec-3-en-8-ylamino)-1-oxopropan-2-yl)ureido)-3-methylbutanoate]",12605
3,COC(=O)[C@@H](NC(=O)N[C@@H](Cc1ccccc1)C(=O)N[C@H]1CCCCNC(=O)/C=C/[C@H](Cc2cccc(F)c2)NC1=O)C(C)C [Compound 27],14336
4,"COC(=O)[C@@H](NC(=O)N[C@@H](Cc1cccc(C)c1)C(=O)N[C@H]1CCCCNC(=O)/C=C/[C@H](Cc2cccc(F)c2)NC1=O)C(C)C [Compound 28, (S)-methyl 2-(3-((S)-1-((5S,8S,E)-S-(3 fluorobenzyl)-2,7-dioxo-1,6-diazacyclododec-3-en-8-ylamino)-1-oxo-3-m-tolylpropan-2-yl)ureido)-3-methylbutanoate]",12866
5,"COC(=O)[C@@H](NC(=O)N[C@@H](Cc1ccc(C)cc1)C(=O)N[C@H]1CCCCNC(=O)/C=C/[C@H](Cc2cccc(F)c2)NC1=O)C(C)C [Compound 29, (S)-methyl 2-(3-((S)-1-((5S,8S,E)-S-(3-fluorobenzyl)-2,7-dioxo-1,6-diazacyclododec-3-en-8-ylamino)-1-oxo-3-p-tolylpropan-2 yl)ureido)-3-methylbutanoate]",11670

# Second part, the compound after the results:
row,hs20S kin/Ki [M⁻¹ s⁻¹],Structure (SMILES)
1,12202,"COC(=O)[C@@H](NC(=O)N[C@@H](Cc1ccccc1F)C(=O)N[C@H]1CCCCNC(=O)/C=C/[C@H](Cc2cccc(F)c2)NC1=O)C(C)C [Compound 30, (S)-methyl 2-(3-((S)-1-((5S,8S,E)-S-(3-fluorobenzyl)-2,7-dioxo-1,6-diazacyclododec-3-en-8-ylamino)-3-(2-fluorophenyl)-1-oxopropan-2 yl)ureido)-3-methylbutanoate]"
2,5016,"COC(=O)[C@@H](NC(=O)N[C@@H](Cc1cccc(F)c1)C(=O)N[C@H]1CCCCNC(=O)/C=C/[C@H](Cc2cccc(F)c2)NC1=O)C(C)C [Compound 31, (S)-methyl 2-(3-((S)-1-((5S,8S,E)-5-(3-fluorobenzyl)-2,7-dioxo-1,6-diazacyclododec-3-en-8-ylamino)-3-(3-fluorophenyl)-1-oxopropan-2-yl)ureido)-3-methylbutanoate]"
3,4531,"COC(=O)[C@@H](NC(=O)N[C@@H](Cc1cccc(C(F)(F)F)c1)C(=O)N[C@H]1CCCCNC(=O)/C=C/[C@H](Cc2cccc(F)c2)NC1=O)C(C)C [Compound 32, (S)-methyl 2-(3-((S)-1-((5S,8S,E)-5-(3-fluorobenzyl)-2,7-dioxo-1,6-diazacyclododec-3-en-8-ylamino)-1-oxo-3-(3-(trifluoromethyl)phenyl)propan-2-yl)ureido)-3-methylbutanoate]"
